Data set [1] is described as follows: Permeability of the compound at 10 uM by PAMPA-BBB assay in presence of mixture of porcine brain lipids dodecane. The class given is ADME. The conditions noted are these: pig. Background: In PAMPA a lipid-coated filter parts donor from acceptor wells.
A short description of data set [2]: Intrinsic clearance in male mouse liver microsomes at 1 uM by UPLC/TOF-MS analysis. The conditions noted are these: read-out: CLH. Type of data set: ADME. On the technique in general: Liver microsomes are vesicles of endoplasmic reticulum, rich in cytochrome P450 enzymes.
Data set [3] in a line: Metabolic stability in mouse plasma assessed as compound remaining measured at 10 uM after 3 hrs by LC-MS/MS analysis. Type of data set: ADME, cell-free. The note with it: read-out: Stability.
Another data set deals with MDR1. In words: Apparent permeability from apical to basolateral side in MDCK cells expressing human MDR1 at 10 uM after 120 mins by UPLC/TOF-MS analysis. The class given is ADME, cell-based, Canis lupus familiaris. The note with it: dog, read-out: permeability.
A short description of data set [4]: Cmax in CD1 mouse at 5 mg/kg, po. The class given is ADME, organism-based. Also on record: dose 5 mg/kg, route oral. The conditions noted are these: in vivo.
The nature of data set [5]: Half life in CD1 mouse at 5 mg/kg, po. The conditions noted are these: in vivo. Type of data set: ADME, organism-based. Also on record: dose 5 mg/kg, route oral.
Data set [6] deals with Mus musculus. The data set can be described thus: Volume of distribution at steady state in CD1 mouse at 5 mg/kg, po. The class given is ADME, organism-based. Also on record: dose 5 mg/kg, route oral. The conditions noted are these: in vivo.
Data set [7] relates to Mus musculus. In words: AUC (0 to infinity) in CD1 mouse at 5 mg/kg, po. Type of data set: ADME, organism-based, Plasma. The arrangement: time infinity, dose 5 mg/kg, route oral. The note with it: in vivo.
The nature of data set [8]: Oral bioavailability in CD1 mouse at 5 mg/kg. The conditions noted are these: in vivo. Type of data set: ADME, organism-based.
Data set [9] can be described thus: Ratio of drug level in brain to plasma in CD1 mouse at 5 mg/kg, po. Type of data set: ADME, organism-based. The arrangement: dose 5 mg/kg, route oral. The note with it: read-out: BPR.
The nature of data set [10]: Toxicity in human NCI-N87 cells xenografted po dosed SCID mouse qd for 14 days. Type of data set: organism-based. The note with it: in vivo. For orientation: Xenograft models place foreign cells or tissue in a host animal.
Data set [11] can be described thus: Cmax in SCID mouse at 100 mg/kg, po qd for 14 days. The class given is ADME, organism-based. The arrangement: dose 100 mg/kg, route oral. The conditions noted are these: in vivo.
Data set [12] in a line: Cmax in SCID mouse at 100 mg/kg, po qd for 1 to 7 days and 14 to 21 days. Type of data set: ADME, organism-based. The arrangement: dose 100 mg/kg, route oral. The note with it: in vivo.
Data set [13] can be described thus: Cmax in SCID mouse at 300 mg/kg, po qd for 1 to 3 days. The conditions noted are these: in vivo. Type of data set: ADME, organism-based. Also on record: dose 300 mg/kg, route oral.
Data set [14] can be described thus: AUC in SCID mouse at 100 mg/kg, po qd for 14 days. The conditions noted are these: plasma. Type of data set: ADME, organism-based. Also on record: dose 100 mg/kg, route oral.
Data set [15] is described as follows: AUC in SCID mouse at 100 mg/kg, po qd for 1 to 7 days and 14 to 21 days. The class given is ADME, organism-based. The arrangement: dose 100 mg/kg, route oral. The note with it: plasma.
Data set [16] in a line: AUC in SCID mouse at 300 mg/kg, po qd for 1 to 3 days. The class given is ADME, organism-based. Also on record: dose 300 mg/kg, route oral. The conditions noted are these: plasma.
A short description of data set [17]: Tmax in SCID mouse at 100 mg/kg, po qd for 14 days. Type of data set: ADME, organism-based. Also on record: dose 100 mg/kg, route oral. The note with it: in vivo.
A short description of data set [18]: Tmax in SCID mouse at 100 mg/kg, po qd for 1 to 7 days and 14 to 21 days. Type of data set: ADME, organism-based. The arrangement: dose 100 mg/kg, route oral. The note with it: in vivo.
Data set [19] can be described thus: Tmax in SCID mouse at 300 mg/kg, po qd for 1 to 3 days. Type of data set: ADME, organism-based. The arrangement: dose 300 mg/kg, route oral. The conditions noted are these: in vivo.
A short description of data set [20]: Half life in SCID mouse at 100 mg/kg, po qd for 14 days. The class given is ADME, organism-based. Also on record: dose 100 mg/kg, route oral. The note with it: in vivo.
The nature of data set [21]: Half life in SCID mouse at 100 mg/kg, po qd for 1 to 7 days and 14 to 21 days. Also on record: dose 100 mg/kg, route oral. The class given is ADME, organism-based. The note with it: in vivo.
Data set [22] is described as follows: Half life in SCID mouse at 300 mg/kg, po qd for 1 to 3 days. The class given is ADME, organism-based. Also on record: dose 300 mg/kg, route oral. The conditions noted are these: in vivo.

Broadly, the Cmax is the highest concentration seen after dosing. In general, half-life refers to how long it takes for the measured level to halve. Low values mean fast loss, high ones slow loss. Broadly, the AUC is concentration integrated over time. A low value points to low exposure. Broadly, the bioavailability is dose-corrected exposure relative to a reference, in per cent. A low value points to poor availability. The Tmax is the time at which the peak concentration occurs.

Turning to `COc1ccccc1N1CCN(C(=O)[C@H]2CC[C@H](Cn3c(=O)[nH]c4ccccc4c3=O)CC2)CC1`, in data set [1], the permeability entry is “impermeable”.

`O=c1[nH]c2ccccc2c(=O)n1C[C@H]1CC[C@H](C(=O)N2CCN(c3ncccn3)CC2)CC1`: the permeability entry in [1] is reported as “permeable”.

`O=c1[nH]c2ccccc2c(=O)n1C[C@H]1CC[C@H](C(=O)N2CCN(c3cnccn3)CC2)CC1`: the permeability entry in data set [1] is on record as “permeable”.

Regarding `O=c1[nH]c2ccccc2c(=O)n1C[C@H]1CC[C@H](C(=O)N2CCN(Cc3ccccc3)CC2)CC1`, the permeability entry in [1] is on record as “impermeable”.

Consider `O=c1[nH]c2ccccc2c(=O)n1C[C@H]1CC[C@H](C(=O)N2CCN(CC3CC3)CC2)CC1`, for which the permeability entry in data set [1] is reported as “permeable”.

With `CC(C)CN1CCN(C(=O)[C@H]2CC[C@H](Cn3c(=O)[nH]c4ccccc4c3=O)CC2)CC1`, the permeability entry in data set [1] is “permeable”.

For the compound `CC(=O)N1CCN(C(=O)[C@H]2CC[C@H](Cn3c(=O)[nH]c4ccccc4c3=O)CC2)CC1`, in data set [1], the permeability result is “permeable”.

For the compound `COCC(=O)N1CCN(C(=O)[C@H]2CC[C@H](Cn3c(=O)[nH]c4ccccc4c3=O)CC2)CC1`, in data set [1], the permeability result is “permeable”.

On to `CC(C)C(=O)N1CCN(C(=O)[C@H]2CC[C@H](Cn3c(=O)[nH]c4ccccc4c3=O)CC2)CC1`, for which the permeability result in [1] was “permeable”.

As to `O=C(C1CC1)N1CCN(C(=O)[C@H]2CC[C@H](Cn3c(=O)[nH]c4ccccc4c3=O)CC2)CC1`, in [1], the permeability result is “permeable”.

As for `O=C(c1ccno1)N1CCN(C(=O)[C@H]2CC[C@H](Cn3c(=O)[nH]c4ccccc4c3=O)CC2)CC1`, the permeability result in data set [1] was “permeable”.

`O=C(C1CCC1)N1CCN(C(=O)[C@H]2CC[C@H](Cn3c(=O)[nH]c4ccccc4c3=O)CC2)CC1`: the permeability result in [1] is “permeable”.

Regarding `COc1cccc2[nH]c(=O)n(C[C@H]3CC[C@H](C(=O)N4CCN(C(=O)C(C)C)CC4)CC3)c(=O)c12`, the permeability result in data set [1] is “permeable”.

For the compound `CC(C)C(=O)N1CCN(C(=O)[C@H]2CC[C@H](Cn3c(=O)[nH]c4cccc(Cl)c4c3=O)CC2)CC1`, the permeability entry in data set [1] is listed as “permeable”.

Turning to `CC(C)C(=O)N1CCN(C(=O)[C@H]2CC[C@H](Cn3c(=O)[nH]c4cccc(F)c4c3=O)CC2)CC1`, the permeability result in [1] is recorded as “permeable”.

Consider `Cc1ccc2[nH]c(=O)n(C[C@H]3CC[C@H](C(=O)N4CCN(C(=O)C(C)C)CC4)CC3)c(=O)c2c1`, for which the permeability entry in [1] was “permeable”.

In the case of `COc1ccc2[nH]c(=O)n(C[C@H]3CC[C@H](C(=O)N4CCN(C(=O)C(C)C)CC4)CC3)c(=O)c2c1`, the permeability entry in data set [1] is given as “permeable”.

Turning to `CC(C)C(=O)N1CCN(C(=O)[C@H]2CC[C@H](Cn3c(=O)[nH]c4cc(Cl)ccc4c3=O)CC2)CC1`, the permeability entry in [1] is “permeable”.

Consider `Cc1cccc2c(=O)n(C[C@H]3CC[C@H](C(=O)N4CCN(C(=O)C(C)C)CC4)CC3)c(=O)[nH]c12`, for which the permeability entry in [1] is reported as “permeable”.

On to `COc1ccc2[nH]c(=O)n(C[C@H]3CC[C@H](C(=O)N4CCN(C(=O)C5CC5)CC4)CC3)c(=O)c2c1`, for which, in data set [1], the permeability result is recorded as “permeable”. Also, the microsomal CLint at 1 µM in [2] amounted to 65.6 µL/min/mg. Moreover, the remaining at 3 h, 10 µM in data set [3] is 78%.

Regarding `COc1ccc2c(c1)c(=O)n(C[C@H]1CC[C@H](C(=O)N3CCN(C(=O)C4CC4)CC3)CC1)c(=O)n2C`, in data set [1], the permeability result was “permeable”. For the same compound, the microsomal CLint at 1 µM in [2] came out at 139 µL/min/mg. The remaining at 3 h, 10 µM in [3] came to 98%.

Regarding `COCC(=O)N1CCN(C(=O)[C@H]2CC[C@H](Cn3c(=O)[nH]c4ccc(OC)cc4c3=O)CC2)CC1`, the permeability entry in [1] is “permeable”. The microsomal CLint at 1 µM in data set [2] came out at 14.5 µL/min/mg. In [3], the remaining at 3 h, 10 µM came out at 74%.

Consider `COCC(=O)N1CCN(C(=O)[C@H]2CC[C@H](Cn3c(=O)c4cc(OC)ccc4n(C)c3=O)CC2)CC1`, for which the permeability result in [1] is “permeable”. Moreover, the microsomal CLint at 1 µM in data set [2] turned out to be 23 µL/min/mg. In addition, the remaining at 3 h, 10 µM in [3] stood at 95%. The Papp A→B at 2 h, 10 µM in the data set on MDR1 came out at 1.3 ×10⁻⁶ cm/s. Also, the Cmax in data set [4] worked out at 1.3 µM; in data set [11], 27 µM; in [12], 22 µM; in [13] it was 35 µM. Also, the half-life in data set [5] was 2.2 h; in data set [20], 2.2 h; in [21], 1.6 h; in [22], 5.4 h. This compound gave a Vdss in the data set on Mus musculus [6] of 0.83 L/kg. In addition, the values for the AUC (in the data set on Mus musculus [7]; in data set [15]; in data set [16]) were 4.9 µM·h, 101 µM·h and 193 µM·h, respectively. The same compound yielded a bioavailability in data set [8] of 42%. Also, the Kp in data set [9] was found to be 0.03. This compound also returned an MTD at 336 h in data set [10] of 250 mg/kg. Moreover, in data set [14], the AUC at 336 h came out at 113 µM·h. The figures for the Tmax in [17], in data set [18] and in data set [19] were 0.5 h, 0.5 h and 1 h, respectively.

For the compound `COc1ccc2[nH]c(=O)n(C[C@H]3CC[C@H](C(=O)N4CCN(C(C)=O)CC4)CC3)c(=O)c2c1`, the permeability entry in data set [1] is on record as “permeable”. Further, the microsomal CLint at 1 µM in [2] is 41.2 µL/min/mg. The remaining at 3 h, 10 µM in [3] came to 100%.

Consider `COc1ccc2c(c1)c(=O)n(C[C@H]1CC[C@H](C(=O)N3CCN(C(C)=O)CC3)CC1)c(=O)n2C`, for which, in [1], the permeability result is listed as “permeable”. Further, the microsomal CLint at 1 µM in data set [2] came to 33.3 µL/min/mg. Further, the remaining at 3 h, 10 µM in [3] stood at 100%.

The values are drawn from ChEMBL document CHEMBL3421631, “Structure-activity relationship and properties optimization of a series of quinazoline-2,4-diones as inhibitors of the canonical Wnt pathway” (Eur J Med Chem, 2015).
